Reference: US20090042913A1, “Indolylalkylthienopyrimidylamines as modulators of the EP2 receptor” (priority 2007, published 2009)

Experiments:
[1] = test system: cumulus-oocyte complexes (PGE2-induced cumulus expansion); assay: Cumulus expansion assay in vitro; type: cell-based, mice; details: in competition with PGE2
Method: Folliculogenesis is induced in immature female mice at an age of 14-18 days by a single dose (intraperitoneal) of 10 I.U. of PMSG (Pregnant Mare Serum Gonadotropin; Sigma G-4877, Lot 68H0909). 47-50 hours after the injection, the ovaries are removed and the cumulus-oocyte complexes are removed. The cumulus complex is not yet expanded at this stage.
The cumulus-oocyte complexes are then incubated with prostaglandin E2 (PGE2) (0.3 μM), vehicle control (ethanol) or test substances for 20-24 hours. Medium: alpha-MEM medium with 0.1 mM IBMX, pyruvates (0.23 mM) glutamines (2 mM), pen/strep 100 IU/ml pen. and 100 μg/ml strep. and HSA (8 mg/ml). Cumulus expansion is then established through the division into four stages (according to Vanderhyden et al. Dev Biol. 1990 August; 140(2):307-317).

[2] = target: T1, human prostaglandin E2 (subtype EP2) receptor (Homo sapiens, UniProt P43116); assay: cAMP antagonism assay (HTRF cAMP detection, PGE2-stimulated cells); type: cell-based; details: cAMP antagonism test, in presence of PGE2
T1 construct: host or cells: cells in a cell culture plate
Method: (§1) The binding of PGE2 to the EP2 subtype of the human PGE2 receptor induces activation of membrane-associated adenylate cyclases and leads to the formation of cAMP. In the presence of the phosphodiesterase inhibitor IBMX, cAMP which has accumulated due to this stimulation and been released by cell lysis is employed in a competitive detection method. In this assay, the cAMP in the lysate competes with cAMP-XL665 for binding of an Eu cryptate-labelled anti-cAMP antibody.
(§2) The two signals are measured in a suitable measuring instrument with a time lag, i.e. after the background fluorescence has declined.
(§3) The substance solutions (0.75 μl) introduced into an assay plate and 30% DMSO are dissolved in 16 μl of a KRSB+IBMX stimulation solution (1× Krebs-Ringer Bicarbonate Buffer; Sigma-Aldrich # K-4002; including 750 μM 3-isobutyl-1-methylxanthine Sigma-Aldrich # I-7018), and then 15 μl thereof are transferred into a media-free cell culture plate which has been washed with KRSB shortly beforehand.
After preincubation at room temperature (RT) for 30 minutes, 5 μl of a 4×PGE2 solution (11 nM) are added, and incubation is carried out in the presence of the agonist at RT for a further 60 min (volume: ˜20 μl) before the reaction is then stopped by adding 5 μl of lysis buffer and incubated at RT for a further 20 min (volume: ˜25 μl). The cell lysate is then transferred into a measuring plate and measured in accordance with the manufacturer's information (cyclic AMP kit Cisbio International # 62AMPPEC).

[3] = target: T1, human prostaglandin E2 (subtype EP2) receptor; assay: cAMP agonism assay (cellular agonism test); type: cell-based; details: without PGE2
Method: as §1, §2
as §3, with “1-7018),” for “I-7018),”
After incubation at room temperature (RT; volume: ˜15 μl) for 60 minutes, the reaction is then stopped by adding 5 μl of lysis buffer and incubated at RT for a further 20 min (volume: ˜20 μl). The cell lysate is then transferred into a measuring plate and measured in accordance with the manufacturer's instructions (cyclic AMP kit Cisbio International # 62AMPPEC).

T1 sequence (P43116 whole entry): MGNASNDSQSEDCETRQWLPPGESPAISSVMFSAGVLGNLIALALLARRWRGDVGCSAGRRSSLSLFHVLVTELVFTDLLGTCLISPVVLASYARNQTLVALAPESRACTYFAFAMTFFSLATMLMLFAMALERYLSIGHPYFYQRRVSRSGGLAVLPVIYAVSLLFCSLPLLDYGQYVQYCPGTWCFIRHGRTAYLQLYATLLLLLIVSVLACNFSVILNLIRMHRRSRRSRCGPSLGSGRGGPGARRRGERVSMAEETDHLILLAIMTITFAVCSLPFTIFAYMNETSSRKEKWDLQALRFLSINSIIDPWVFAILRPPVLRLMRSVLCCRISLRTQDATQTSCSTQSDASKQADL

IC50 [2] | effect in the cellular agonism test [3] | Compound | suppression of cumulus expansion ([1]; 100-200 μM) | suppression of cumulus expansion ([1]; 10 μM)
 |  | CC(C)Oc1ccc2c(=O)c3cc(C(=O)O)ccc3oc2c1 [AH 6809, reference compound] | approx. 30% | 
0.111 µM | no inhibition | Cc1[nH]c2c(F)ccc(C)c2c1CCNc1ncnc2cc(-c3cccc(F)c3)sc12 [Example 22, [2-(7-fluoro-2,4-dimethyl-1H-indol-3-yl)ethyl]-[6-(3-fluorophenyl)thieno[3,2-d]pyrimidin-4-yl]amine] |  | 45%
0.101 µM |  | Cc1[nH]c2c(F)ccc(C)c2c1CCNc1ncnc2cc(-c3ccc(C(F)(F)F)cc3)sc12 [Example 30, [2-(7-fluoro-2,4-dimethyl-1H-indol-3-yl)ethyl]-[6-(4-trifluoromethylphenyl)thieno[3,2-d]pyrimidin-4-yl]amine] |  | 
0.097 µM |  | Cc1[nH]c2c(F)ccc(C)c2c1CCNc1ncnc2cc(-c3cc(F)ccc3F)sc12 [Example 55, [6-(2,5-difluorophenyl)thieno[3,2-d]pyrimidin-4-yl]-[2-(7-fluoro-2,4-dimethyl-1H-indol-3-yl)ethyl]amine] |  | 
